Assay results published in ChEMBL document CHEMBL2150895, “Zizimauritic acids A-C, three novel nortriterpenes from Ziziphus mauritiana” (Bioorg Med Chem Lett, 2012).
In brackets after ≈: the same amount, converted by molar mass. Activity calls are given as the source filed them. The rule behind the calls is not given here.

Key:
[1] = system: A549; assay: Cytotoxicity against human A549 cells; type: functional, cell-based
[2] = system: Staphylococcus aureus; assay: Antibacterial activity against Staphylococcus aureus; type: functional, organism-based
[3] = system: BGC-823; assay: Cytotoxicity against human BGC823 cells; type: functional, cell-based
[4] = system: HeLa; assay: Cytotoxicity against human HeLa cells; type: functional, cell-based
[5] = system: Candida albicans; assay: Antifungal activity against Candida albicans; type: functional, organism-based

SMILES	Activity [1]	Activity [2]	Activity [3]	Activity [4]	IC50 [1]	IC50 [2]	IC50 [3]	IC50 [5]	IC50 [4]
C=C(C)[C@@H]1CC[C@]2(C(=O)O)CC[C@]3(C)[C@H](CC[C@@H]4[C@@]5(C)CC[C@H](O)C(C)(C)[C@@H]5CC[C@]43C)[C@@H]12	inactive	inactive	inactive	inactive	–	–	–	–	–
C=C(C)[C@@H]1CC[C@]2(C(=O)O)CC[C@]3(C)[C@H](CC[C@@H]4[C@@]5(C)[C@@H](C(=O)O)[C@H](O)C(C)(C)[C@@H]5CC[C@]43C)[C@@H]12	inactive	inactive	inactive	inactive	–	–	–	–	–
CC(C)=C[C@@H]1[C@H]2CC[C@@H]3[C@@]4(C)C=CC(C)(C)[C@@H]4CC[C@@]3(C)[C@]2(C(=O)O)CC[C@@]12CC(O)OC2=O (mixture of isomers) [ZIZIMAURITIC ACID C]	–	–	–	–	11.9 µg/mL	12.8 µg/mL	10.1 µg/mL	> 10 µg/mL	9.25 µg/mL
CC1(C)S[C@@H]2[C@H](NC(=O)[C@H](N)c3ccccc3)C(=O)N2[C@H]1C(=O)O [AMPICILLIN]	–	–	–	–	–	0.04 µg/mL (≈ 0.114 µM)	–	–	–
C=C(C)[C@@H]1CC[C@]2(C(=O)O)CC[C@]3(C(=O)O)[C@H](CC[C@@H]4[C@@]5(C)C=CC(C)(C)[C@@H]5CC[C@]43C)[C@@H]12 [CEANOTHENIC ACID]	–	–	–	–	–	> 20 µg/mL	> 10 µg/mL	> 10 µg/mL	7.55 µg/mL (≈ 16.6 µM)
Clc1ccc(COC(Cn2ccnc2)c2ccc(Cl)cc2Cl)c(Cl)c1.O=[N+]([O-])O (configuration not stated) [MICONAZOLE NITRATE]	–	–	–	–	–	–	–	0.16 µg/mL	–
CC(=O)O[C@H]1C(=O)[C@@]2(C)[C@H]([C@H](OC(=O)c3ccccc3)[C@]3(O)C[C@H](OC(=O)[C@H](O)[C@@H](NC(=O)c4ccccc4)c4ccccc4)C(C)=C1C3(C)C)[C@]1(OC(C)=O)CO[C@@H]1C[C@@H]2O [PACLITAXEL]	–	–	–	–	0.02 µg/mL (≈ 0.0234 µM)	–	0.01 µg/mL (≈ 0.0117 µM)	–	0.38 µg/mL (≈ 0.445 µM)
CO[C@H]1C[C@@]2(CC[C@]3(C(=O)O)[C@H](CC[C@@H]4[C@@]5(C)C=CC(C)(C)[C@@H]5CC[C@]43C)[C@H]2C=C(C)C)C(=O)O1 [ZIZIMAURITIC ACID A]	–	–	–	–	9.37 µg/mL (≈ 19.3 µM)	2.17 µg/mL (≈ 4.48 µM)	8.8 µg/mL (≈ 18.2 µM)	> 10 µg/mL	6.06 µg/mL (≈ 12.5 µM)
CO[C@@H]1C[C@@]2(CC[C@]3(C(=O)O)[C@H](CC[C@@H]4[C@@]5(C)C=CC(C)(C)[C@@H]5CC[C@]43C)[C@H]2C=C(C)C)C(=O)O1 [ZIZIMAURITIC ACID B]	–	–	–	–	5.05 µg/mL (≈ 10.4 µM)	> 20 µg/mL	6.24 µg/mL (≈ 12.9 µM)	> 10 µg/mL	5.36 µg/mL (≈ 11.1 µM)
